From US12150940B2, “WASp-protecting small molecules, compositions, methods and uses thereof in the treatment of innate and acquired immune-related disorders or conditions” (BAR ILAN UNIVERSITY, priority 2016, dated 2024) come the findings set out here.

Test [1] has as its system WAS−/−/WASp Y107C Jurkat T-cells. In words: Lymphocyte migration on ICAM-1/SDF-1α, WAS−/−/WASp Y107C cells. The test is classed as cell-based, human. The protocol:
WASp knockout Jurkat T-cell lines that express only exogenous YFP-WASp R86C (WAS^−/−/WASp R86C) or Y107C (WAS^−/−/WASp Y107C) were pretreated with SMC #34 in comparison to cells treated with the control. Cells that completely lack WASp expression (WAS^−/−) were also treated with the control. Cellular migration was tracked over a 20-min period on ICAM-1/SDF-1α-coated cover glasses, as described in Experimental procedures.
Approximately 1×10^5 lymphocytes were seeded over chambered coverslips (LabTek) pre-coated with 6 μg/ml ICAM-1 and 2 μg/ml SDF-1α. Cells were incubated at 37° C., 5% CO2 and DIC images were acquired with the Zeiss Observer Z1 inverted microscope every 5 s for 20 min under a 20× objective lens using Zen software. The random movement (Displacement and velocity) of the cells was automatically tracked and analyzed using TrackMate plugin of ImageJ software. An individual trace was assigned to each of the analyzed cells.

For another test, the target named is T1, WASp (Homo sapiens, UniProt P42768).
T1 construct: endogenous in cells; host or cells: primary human platelets from healthy donors
T1 sequence (P42768 1-502): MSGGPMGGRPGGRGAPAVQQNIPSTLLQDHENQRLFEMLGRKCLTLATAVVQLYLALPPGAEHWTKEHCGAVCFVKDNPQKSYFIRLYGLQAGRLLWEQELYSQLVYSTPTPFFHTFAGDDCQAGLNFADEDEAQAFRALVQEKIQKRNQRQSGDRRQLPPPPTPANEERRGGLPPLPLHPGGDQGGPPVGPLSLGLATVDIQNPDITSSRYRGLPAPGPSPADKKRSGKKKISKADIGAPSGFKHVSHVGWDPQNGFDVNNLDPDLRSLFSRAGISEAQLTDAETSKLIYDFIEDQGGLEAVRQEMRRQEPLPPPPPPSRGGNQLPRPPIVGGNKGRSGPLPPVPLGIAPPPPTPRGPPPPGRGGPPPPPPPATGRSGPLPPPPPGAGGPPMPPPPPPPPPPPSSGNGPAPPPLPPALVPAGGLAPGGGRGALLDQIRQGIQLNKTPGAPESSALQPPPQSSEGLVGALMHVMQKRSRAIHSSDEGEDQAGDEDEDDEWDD
Put plainly: WASp expression in anti-CD3/anti-CD28-activated PBMCs (western blot). In kind it is cell-based. The protocol:
FIG. 4C-4D. Freshly-isolated PBMCs were incubated with SMC #6 or control at 37° C. for the indicated times. The PBMCs were either co-stimulated (+) with anti-CD3 and anti-CD28 or left unstimulated (−), followed by lysis. Lysates were analyzed for WASp expression by immunoblotting with anti-WASp and anti-GAPDH as loading control (FIG. 4C). Relative WASp expression was determined by densitometric analysis and is presented in a summarizing graph of FIG. 4D. Error bars represent the SE from the mean. P values were calculated versus DMSO-treated control cells by two-tailed Student's t-test, and is indicated therein. Data are representative of three independent experiments.
Jurkat T-cells (FIG. 5A) or Freshly-isolated PBMCs (FIG. 5B) were incubated for 15 min at 37° C. with either control or the indicated WASp-binding SMCs, followed by co-stimulation with anti-CD3 and anti-CD28 and lysis. Freshly-isolated platelets were incubated for 15 min at 37° C. with either control or the indicated WASp-binding SMCs, followed by stimulation with TRAP-6 (10 μM) and lysis (FIG. 5C). Lysates were analyzed for WASp expression by immunoblotting with anti-WASp and anti-GAPDH as loading control. Western blot is representative of three independent experiments. […] Relative WASp expression was determined by densitometric analysis. Error bars represent the SE from the mean. […]
(Immunoblotting shows a protein as a band on a membrane.)

Turning to `CC1CCCC(C)N1C(=O)CSc1nnc(COc2cccc3cccnc23)o1` (stereo not shown) [SMC #34, 1-(2,6-dimethylpiperidin-1-yl)-2-[[5-(quinolin-8-yloxymethyl)-1,3,4-oxadiazol-2-yl]sulfanyl]ethanone], the migration entry in test [1] (WAS−/−/WASp Y107C cells, vs control) is given as “significantly increased”. For the same molecule, the mean cell displacement in test [1] (WAS−/−/WASp Y107C, 20 min, mean ± SE) is recorded as 74.24±8.16.
On to `CC(=O)N[C@H]1C[C@@H](c2ccc3c(c2)nnn3C)O[C@@H](c2ccc(Cl)cc2)C1` [SMC #6, N-[(2R,4R,6S)-2-(4-chlorophenyl)-6-(1-methylbenzotriazol-5-yl)oxan-4-yl]acetamide], for which the “WASp degradation in PBMCs” value is “attenuated WASp degradation” on WASp (after 15 min of incubation) and “more pronounced” at WASp (after 2 h of incubation, compared with 15 min).
